Laboratory results published in PubChem BioAssay (NCI).
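Each compound was tested at five concentrations against cells in 96-well plates for 48 hours. TGI: concentration producing complete growth inhibition.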

Tests used:
Assay in all cases: growth of human tumour cells (NCI), 48 h
[1] = test system: A549 NSCLC
[2] = test system: COLO 205 colon
[3] = test system: NCI-H23 lung
[4] = test system: HT29 colon
[5] = test system: SK-MEL-2 melanoma
[6] = test system: SK-OV-3 ovarian
[7] = test system: T-47D breast
[8] = test system: PC-3 prostate
[9] = test system: RXF 393 renal
[10] = test system: MALME-3M melanoma
[11] = test system: K-562 leukemia
[12] = test system: UACC-62 melanoma
[13] = test system: OVCAR-5 ovarian
[14] = test system: MDA-MB-435
[15] = test system: HS 578T breast
[16] = test system: SW-620 colon
[17] = test system: HOP-92 NSCLC
[18] = test system: SK-MEL-5 melanoma
[19] = test system: OVCAR-4 ovarian
[20] = test system: MOLT-4 leukemia
[21] = test system: DU-145 prostate
[22] = test system: RPMI-8226 leukemia
[23] = test system: HCT-15 colon
[24] = test system: NCI/ADR-RES ovarian
[25] = test system: SNB-19 CNS
[26] = test system: OVCAR-3 ovarian
[27] = test system: HOP-62 NSCLC
[28] = test system: CCRF-CEM leukemia
[29] = test system: HCT-116 colon
[30] = test system: SF-295 CNS
[31] = test system: IGROV1 ovarian
[32] = test system: SNB-75 CNS
[33] = test system: UO-31 renal
[34] = test system: CAKI-1 renal
[35] = test system: TK-10 renal
[36] = test system: U251 CNS
[37] = test system: SF-268 CNS
[38] = test system: OVCAR-8 ovarian
[39] = test system: EKVX NSCLC
[40] = test system: A498 renal
[41] = test system: ACHN renal
[42] = test system: 786-0 renal
[43] = test system: NCI-H460 lung
[44] = test system: MDA-N
[45] = test system: MDA-MB-231 breast
[46] = test system: MCF7 breast
[47] = test system: UACC-257 melanoma
[48] = test system: NCI-H522 lung
[49] = test system: HCC-2998 colon
[50] = test system: SK-MEL-28 melanoma
[51] = test system: M14 melanoma
[52] = test system: KM12 colon
[53] = test system: BT-549 breast
[54] = test system: LOX IMVI melanoma
[55] = test system: SF-539 CNS
[56] = test system: HL-60(TB) leukemia
[57] = test system: SN12C renal
[58] = test system: SR leukemia
[59] = test system: NCI-H226 lung

## Cc1noc(-c2ccc(C(=O)O)[nH]2)c1Br
[1]
  TGI: > 100 µM
[2]
  TGI: > 100 µM
[3]
  TGI: > 100 µM
[4]
  TGI: > 100 µM
[5]
  TGI: > 100 µM
[6]
  TGI: > 100 µM
[7]
  TGI: 71.4 µM
[8]
  TGI: > 100 µM
[9]
  TGI: > 100 µM
[10]
  TGI: > 100 µM
[11]
  TGI: > 100 µM
[12]
  TGI: > 100 µM
[13]
  TGI: > 100 µM
[14]
  TGI: > 100 µM
[15]
  TGI: > 100 µM
[16]
  TGI: > 100 µM
[17]
  TGI: 84.3 µM
[18]
  TGI: > 100 µM
[19]
  TGI: > 100 µM
[20]
  TGI: > 100 µM
[21]
  TGI: > 100 µM
[22]
  TGI: > 100 µM
[23]
  TGI: > 100 µM
[24]
  TGI: > 100 µM
[25]
  TGI: > 100 µM
[26]
  TGI: > 100 µM
[27]
  TGI: 77.3 µM
[28]
  TGI: > 100 µM
[29]
  TGI: > 100 µM
[30]
  TGI: > 100 µM
[31]
  TGI: > 100 µM
[32]
  TGI: > 100 µM
[33]
  TGI: > 100 µM
[34]
  TGI: > 100 µM
[35]
  TGI: > 100 µM
[36]
  TGI: > 100 µM
[37]
  TGI: > 100 µM
[38]
  TGI: 32.2 µM
[39]
  TGI: > 100 µM
[40]
  TGI: > 100 µM
[41]
  TGI: > 100 µM
[42]
  TGI: 91.9 µM
[43]
  TGI: > 100 µM
[44]
  TGI: > 100 µM
[45]
  TGI: > 100 µM
[46]
  TGI: > 100 µM
[47]
  TGI: > 100 µM
[48]
  TGI: > 100 µM
[49]
  TGI: > 100 µM
[50]
  TGI: > 100 µM
[51]
  TGI: > 100 µM
[52]
  TGI: > 100 µM
[53]
  TGI: > 100 µM

## CC(C)=CCNc1ncnc2c1ncn2CCC(=O)O
[54]
  TGI: > 100 µM
[1]
  TGI: > 100 µM
[2]
  TGI: > 100 µM
[3]
  TGI: > 100 µM
[4]
  TGI: > 100 µM
[6]
  TGI: > 100 µM
[7]
  TGI: > 100 µM
[8]
  TGI: > 100 µM
[9]
  TGI: > 100 µM
[10]
  TGI: > 100 µM
[11]
  TGI: > 100 µM
[12]
  TGI: > 100 µM
[13]
  TGI: > 100 µM
[14]
  TGI: > 100 µM
[15]
  TGI: > 100 µM
[55]
  TGI: > 100 µM
[16]
  TGI: > 100 µM
[17]
  TGI: > 100 µM
[18]
  TGI: > 100 µM
[19]
  TGI: > 100 µM
[20]
  TGI: > 100 µM
[21]
  TGI: > 100 µM
[22]
  TGI: > 100 µM
[23]
  TGI: > 100 µM
[56]
  TGI: > 100 µM
[57]
  TGI: > 100 µM
[24]
  TGI: > 100 µM
[25]
  TGI: > 100 µM
[26]
  TGI: > 100 µM
[27]
  TGI: > 100 µM
[58]
  TGI: > 100 µM
[28]
  TGI: > 100 µM
[29]
  TGI: > 100 µM
[30]
  TGI: > 100 µM
[31]
  TGI: > 100 µM
[32]
  TGI: > 100 µM
[33]
  TGI: > 100 µM
[35]
  TGI: > 100 µM
[36]
  TGI: > 100 µM
[37]
  TGI: > 100 µM
[38]
  TGI: > 100 µM
[40]
  TGI: > 100 µM
[41]
  TGI: > 100 µM
[42]
  TGI: > 100 µM
[43]
  TGI: > 100 µM
[44]
  TGI: > 100 µM
[45]
  TGI: > 100 µM
[46]
  TGI: > 100 µM
[48]
  TGI: > 100 µM
[49]
  TGI: > 100 µM
[59]
  TGI: > 100 µM
[50]
  TGI: > 100 µM
[51]
  TGI: > 100 µM
[52]
  TGI: > 100 µM
[53]
  TGI: > 100 µM

## CNCC(SC)c1ccc(O)c(O)c1 (centres undefined)
[54]
  TGI: 84.9 µM
[1]
  TGI: > 100 µM
[2]
  TGI: 32.9 µM
[3]
  TGI: > 100 µM
[4]
  TGI: 99.5 µM
[5]
  TGI: > 100 µM
[6]
  TGI: > 100 µM
[7]
  TGI: 67 µM
[8]
  TGI: > 100 µM
[9]
  TGI: > 100 µM
[10]
  TGI: 32.4 µM
[11]
  TGI: 59 µM
[12]
  TGI: > 100 µM
[13]
  TGI: > 100 µM
[14]
  TGI: > 100 µM
[15]
  TGI: > 100 µM
[16]
  TGI: 46.9 µM
[17]
  TGI: 39.3 µM
[18]
  TGI: > 100 µM
[19]
  TGI: 32.5 µM
[20]
  TGI: 47.2 µM
[21]
  TGI: 37.4 µM
[22]
  TGI: 58.6 µM
[23]
  TGI: > 100 µM
[56]
  TGI: 37.5 µM
[57]
  TGI: 45.8 µM
[24]
  TGI: > 100 µM
[25]
  TGI: > 100 µM
[26]
  TGI: 40.9 µM
[27]
  TGI: > 100 µM
[28]
  TGI: 7.33 µM
[29]
  TGI: 43.7 µM
[30]
  TGI: > 100 µM
[31]
  TGI: > 100 µM
[32]
  TGI: > 100 µM
[33]
  TGI: > 100 µM
[34]
  TGI: 38 µM
[35]
  TGI: 34 µM
[36]
  TGI: > 100 µM
[37]
  TGI: > 100 µM
[38]
  TGI: 41.4 µM
[39]
  TGI: 37.1 µM
[40]
  TGI: > 100 µM
[41]
  TGI: 33.4 µM
[42]
  TGI: 39.1 µM
[43]
  TGI: 33.2 µM
[44]
  TGI: 38.1 µM
[45]
  TGI: > 100 µM
[46]
  TGI: 87.4 µM
[47]
  TGI: 27.9 µM
[48]
  TGI: 34.5 µM
[49]
  TGI: 31.2 µM
[59]
  TGI: > 100 µM
[50]
  TGI: > 100 µM
[51]
  TGI: > 100 µM
[52]
  TGI: > 100 µM
[53]
  TGI: 31 µM

## CSCCC(NC(=O)C(Cc1c[nH]c2ccccc12)NC(=O)CCNC(=O)OC(C)(C)C)C(=O)NC(CC(=O)O)C(=O)NC(Cc1ccccc1)C(N)=O (centres undefined)
[54]
  TGI: > 50 µM
[1]
  TGI: > 50 µM
[2]
  TGI: > 50 µM
[4]
  TGI: > 50 µM
[5]
  TGI: > 50 µM
[6]
  TGI: > 50 µM
[7]
  TGI: > 50 µM
[8]
  TGI: > 50 µM
[9]
  TGI: > 50 µM
[11]
  TGI: > 50 µM
[12]
  TGI: > 50 µM
[13]
  TGI: > 50 µM
[14]
  TGI: > 50 µM
[15]
  TGI: > 50 µM
[55]
  TGI: > 50 µM
[16]
  TGI: > 50 µM
[17]
  TGI: > 50 µM
[18]
  TGI: > 50 µM
[20]
  TGI: > 50 µM
[21]
  TGI: > 50 µM
[22]
  TGI: > 50 µM
[56]
  TGI: > 50 µM
[57]
  TGI: > 50 µM
[24]
  TGI: > 50 µM
[26]
  TGI: > 50 µM
[27]
  TGI: > 50 µM
[28]
  TGI: > 50 µM
[29]
  TGI: > 50 µM
[30]
  TGI: > 50 µM
[31]
  TGI: > 50 µM
[32]
  TGI: > 50 µM
[34]
  TGI: > 50 µM
[35]
  TGI: > 50 µM
[36]
  TGI: > 50 µM
[37]
  TGI: > 50 µM
[39]
  TGI: > 50 µM
[40]
  TGI: > 50 µM
[42]
  TGI: > 50 µM
[44]
  TGI: > 50 µM
[45]
  TGI: > 50 µM
[46]
  TGI: > 50 µM
[47]
  TGI: > 50 µM
[48]
  TGI: > 50 µM
[49]
  TGI: > 50 µM
[59]
  TGI: > 50 µM
[50]
  TGI: > 50 µM
[51]
  TGI: > 50 µM
[52]
  TGI: > 50 µM
[53]
  TGI: > 50 µM
